From BigSolDB 2.1

O=C(Nc1ccc(F)cc1F)c1cccnc1Oc1cccc(C(F)(F)F)c1
solubility (mole fraction) (in DMF, 278.15 K): 0.000523
solubility (mole fraction) (in DMF, 283.15 K): 0.000679
solubility (mole fraction) (in DMF, 288.15 K): 0.000847
solubility (mole fraction) (in DMF, 293.15 K): 0.00104
solubility (mole fraction) (in DMF, 298.15 K): 0.00127
solubility (mole fraction) (in DMF, 303.15 K): 0.00153
solubility (mole fraction) (in DMF, 308.15 K): 0.00182
solubility (mole fraction) (in DMF, 313.15 K): 0.00213
solubility (mole fraction) (in DMF, 318.15 K): 0.00255
solubility (mole fraction) (in DMF, 323.15 K): 0.00298
solubility (mole fraction) (in ethanol, 278.15 K): 0.000244
solubility (mole fraction) (in ethanol, 283.15 K): 0.000319
solubility (mole fraction) (in ethanol, 288.15 K): 0.000425
solubility (mole fraction) (in ethanol, 293.15 K): 0.000537
solubility (mole fraction) (in ethanol, 298.15 K): 0.000683
solubility (mole fraction) (in ethanol, 303.15 K): 0.000901
solubility (mole fraction) (in ethanol, 308.15 K): 0.00111
solubility (mole fraction) (in ethanol, 313.15 K): 0.00142
solubility (mole fraction) (in ethanol, 318.15 K): 0.00176
solubility (mole fraction) (in ethanol, 323.15 K): 0.00216
solubility (mole fraction) (in ethylene glycol, 278.15 K): 1.42e-05
solubility (mole fraction) (in ethylene glycol, 283.15 K): 1.76e-05
solubility (mole fraction) (in ethylene glycol, 288.15 K): 2.25e-05
solubility (mole fraction) (in ethylene glycol, 293.15 K): 2.71e-05
solubility (mole fraction) (in ethylene glycol, 298.15 K): 3.28e-05
solubility (mole fraction) (in ethylene glycol, 303.15 K): 3.89e-05
solubility (mole fraction) (in ethylene glycol, 308.15 K): 4.62e-05
solubility (mole fraction) (in ethylene glycol, 313.15 K): 5.41e-05
solubility (mole fraction) (in ethylene glycol, 318.15 K): 6.34e-05
solubility (mole fraction) (in ethylene glycol, 323.15 K): 7.49e-05
solubility (mole fraction) (in propylene glycol, 278.15 K): 4.63e-05
solubility (mole fraction) (in propylene glycol, 283.15 K): 5.76e-05
solubility (mole fraction) (in propylene glycol, 288.15 K): 7.29e-05
solubility (mole fraction) (in propylene glycol, 293.15 K): 9.02e-05
solubility (mole fraction) (in propylene glycol, 298.15 K): 0.000108
solubility (mole fraction) (in propylene glycol, 303.15 K): 0.000129
solubility (mole fraction) (in propylene glycol, 308.15 K): 0.000152
solubility (mole fraction) (in propylene glycol, 313.15 K): 0.00018
solubility (mole fraction) (in propylene glycol, 318.15 K): 0.000209
solubility (mole fraction) (in propylene glycol, 323.15 K): 0.000245
solubility (mole fraction) (in water, 278.15 K): 1.45e-07
solubility (mole fraction) (in water, 283.15 K): 2.02e-07
solubility (mole fraction) (in water, 288.15 K): 2.68e-07
solubility (mole fraction) (in water, 293.15 K): 3.33e-07
solubility (mole fraction) (in water, 298.15 K): 4.08e-07
solubility (mole fraction) (in water, 303.15 K): 4.98e-07
solubility (mole fraction) (in water, 308.15 K): 6.05e-07
solubility (mole fraction) (in water, 313.15 K): 7.25e-07
solubility (mole fraction) (in water, 318.15 K): 8.72e-07
solubility (mole fraction) (in water, 323.15 K): 1.04e-06
